The target of one data set is T1, Adrenergic α2B (Homo sapiens, UniProt P18089).
T1 sequence (P18089 1-450): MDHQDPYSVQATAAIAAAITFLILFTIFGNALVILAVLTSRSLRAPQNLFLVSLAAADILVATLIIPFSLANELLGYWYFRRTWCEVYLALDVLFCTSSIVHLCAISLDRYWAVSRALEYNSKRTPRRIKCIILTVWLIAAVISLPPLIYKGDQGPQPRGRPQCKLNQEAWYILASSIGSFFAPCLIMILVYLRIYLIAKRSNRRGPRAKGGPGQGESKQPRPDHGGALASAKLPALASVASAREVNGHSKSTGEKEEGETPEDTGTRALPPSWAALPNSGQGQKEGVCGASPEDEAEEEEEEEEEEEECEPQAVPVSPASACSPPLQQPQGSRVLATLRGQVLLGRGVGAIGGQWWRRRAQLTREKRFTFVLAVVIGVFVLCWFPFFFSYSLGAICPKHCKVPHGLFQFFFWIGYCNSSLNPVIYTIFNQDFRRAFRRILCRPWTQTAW
In words: Radioligand binding Adrenergic α2B.

Data set [1] in a line: PET scans of primate subjects, brain entry. It is filed as in vivo. The note with it: preliminary PET scans. An excerpt: (§1) The compound of Formula I is a dibenzothiazepine that has shown antidopaminergic activity.
The next data set can be described thus: Brain exposure in rats. Particulars: rat; for Kp at 1 h: brain. It is filed as in vivo. How it is done: Brain exposure was measured in rats. For concentrations of 11-piperazin-1-yldibenzo[b,f][1,4]thiazepine in brain, rats were dosed either po or iv (n=3 per dose route). At one hour after compound administration blood and brain samples were obtained and then processed for analysis using HPLC/MS to measure concentrations of 11-piperazin-1-yldibenzo[b,f][ 1,4]thiazepine.

The test system of data set [2] is mice. As to the kind of experiment: Standard apomorphine climbing mouse assay. It is filed as in vivo. Particulars: p.o. An excerpt:
(§2) The methods and procedures used can be found in Warawa et al., J. Med. Chem., 2001, 44 (3), 372-389, and are incorporated herein by reference.

Data set [3] in a line: Plasma levels in satellite exposure animals (Geller-Seifter). The note with it: Long Evans, rat, subcutaneous, 0.25 hours after administration. It is filed as in vivo. How it is done: Anxiolytic activity of 11-piperazin-1-yldibenzo[b,f][1,4]thiazepine was tested in rats according to the Geller-Seifter conflict test. Efficacy results are presented in Table 1 and plasma levels in satellite exposure animals at 0.25 hours after administration are provided in Table 2.
Several doses were tested on a given day in different subjects. Each dose, then, was tested in a different sub-set of rats. The dependent variables recorded were the rate of responding in unpunished and punished components (total responses/total time under the component), the number of shocks delivered. A selective anxiolytic effect is defined as an increase in responding in the […] components with relatively less or no effect on responding in […] components. t-Tests were used to compare mean of the control's rate of responding on vehicle day of the rats used for a specific dose to the same rats means following delivery of each dose of compound (for only the rats used within each dose). Brains, CSF and plasma were collected in a satellite group of rats that match the Geller-Seifter rats to evaluate exposure levels.
Exposure sampling: In weight and feeding status-matched subjects, terminal plasma, whole brain and CSF samples were collected. Four rats were used for each of the 4 doses of drug, with samples obtained 15 minutes after dosing.

The target in a further data set is T2, 5HT Transporter (Homo sapiens, UniProt P31645).
T2 construct: from tissue; host or cells: brain of living primate subjects (PET)
T2 sequence (P31645 whole entry, species assumed): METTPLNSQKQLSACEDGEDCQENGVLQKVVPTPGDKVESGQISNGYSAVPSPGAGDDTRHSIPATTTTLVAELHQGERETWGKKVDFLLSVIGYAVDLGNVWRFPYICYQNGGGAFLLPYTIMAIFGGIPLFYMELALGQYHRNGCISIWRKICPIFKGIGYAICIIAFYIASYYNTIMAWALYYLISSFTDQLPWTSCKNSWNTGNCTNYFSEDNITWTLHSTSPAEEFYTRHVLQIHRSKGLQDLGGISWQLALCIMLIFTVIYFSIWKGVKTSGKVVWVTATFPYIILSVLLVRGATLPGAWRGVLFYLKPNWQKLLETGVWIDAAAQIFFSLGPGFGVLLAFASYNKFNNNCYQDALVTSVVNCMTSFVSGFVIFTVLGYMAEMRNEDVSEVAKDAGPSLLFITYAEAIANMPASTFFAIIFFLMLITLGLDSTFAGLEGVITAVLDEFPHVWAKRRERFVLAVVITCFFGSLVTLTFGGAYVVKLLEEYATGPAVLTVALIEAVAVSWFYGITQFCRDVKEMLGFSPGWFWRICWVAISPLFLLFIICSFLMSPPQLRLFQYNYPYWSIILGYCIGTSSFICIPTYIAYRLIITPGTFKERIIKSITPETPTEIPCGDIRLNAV
In words: PET scans of primate subjects, 5HT Transporter occupancy. It is filed as in vivo. The note with it: preliminary PET scans.
Text: as §1

Data set [4] is described as follows: Oral bioavailability in Sprague-Dawley rats. Format: in vivo. The note with it: rat, plasma, 30 μmol/kg. How it is done: 11-piperazin-1-yldibenzo[b,f][1,4]thiazepine was administered to 3 Sprague-Dawley rats each either intravenously or orally at doses of 10 μmol/kg or 30 μmol/kg, respectively, in a sodium citrate (pH 3) formulation. Blood samples were removed from each animal at several time points after dosing. The blood samples were centrifuged to produce plasma. Aliquots of each plasma sample were analyzed by an HPLC method with mass spectrometric detection to measure 11-piperazin-1-yldibenzo[b,f][1,4]thiazepine. The area under the plasma concentration curves (AUC) constructed from the sample measurements following iv or po administration were used to calculate oral biovailability.

Data set [5] deals with mice. In words: Mouse forced swim test. Format: in vivo. Particulars: 10.0 mg/kg sc, 15 minutes prior. How it is done:
Methods: Mice were placed in cylinders of water (25.0° C.±1.5° C.) for 6 minutes. The amount of immobility was quantified during the last 4 minutes of each session. The experimental observer was blind to the treatment conditions. […] Imipramine 45.0 mg/kg and citalopram 15.0 mg/kg were measured as the salt and administered ip 60 minutes prior to the behavioural session.

The target in a further data set is T3, 5-HT2A receptors (Homo sapiens, UniProt P28223).
T3 construct: from tissue; host or cells: brain of living primate subjects (PET)
T3 sequence (P28223 whole entry): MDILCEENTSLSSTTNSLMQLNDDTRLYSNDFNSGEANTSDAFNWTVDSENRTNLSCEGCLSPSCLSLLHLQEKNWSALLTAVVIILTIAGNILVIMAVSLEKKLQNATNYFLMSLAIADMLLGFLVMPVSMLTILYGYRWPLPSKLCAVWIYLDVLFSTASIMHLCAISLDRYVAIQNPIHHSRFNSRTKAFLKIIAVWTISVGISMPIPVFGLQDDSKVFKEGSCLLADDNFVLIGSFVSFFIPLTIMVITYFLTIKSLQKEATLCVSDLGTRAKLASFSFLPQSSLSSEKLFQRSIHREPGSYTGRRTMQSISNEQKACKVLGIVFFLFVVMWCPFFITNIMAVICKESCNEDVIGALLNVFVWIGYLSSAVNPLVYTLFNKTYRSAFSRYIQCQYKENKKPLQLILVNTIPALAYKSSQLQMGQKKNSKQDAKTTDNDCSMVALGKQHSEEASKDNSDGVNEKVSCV
As to the kind of experiment: PET scans of primate subjects, 5-HT2A occupancy. It is filed as in vivo. Particulars: preliminary PET scans.
Text: as §1

Another data set has as its system rats. As to the kind of experiment: D-amphetamine locomotor activity test. It is filed as in vivo, rat. The note with it: freebase, s.c.
Text: as §2

For data set [6], the target named is Adrenergic α2* Non-Selective. In words: Radioligand binding 203900 Adrenergic α2* Non-Selective. Also on record: species or system rat. The source says: Receptor binding methods, α-adrenergic nonselective, are provided below.

Structures are written as SMILES. Read-outs that look alike come from different tables or passages of the source.

Usually IC50 stands for the concentration at which inhibition is half-maximal. Lower therefore signals greater potency in that assay. What is called Ki is a dissociation constant, usually derived from enzyme kinetics or from competition with a known ligand. The low end stands for a stronger hold on the target, the high end for a looser hold on the target. The inhibition is the drop in the measured response relative to a control, in per cent. A higher inhibition goes with strong suppression. As a reminder, the bioavailability is dose-corrected exposure relative to a reference, in per cent.

For the compound `c1ccc2c(c1)N=C(N1CCNCC1)c1ccccc1S2` [11-piperazin-1-yldibenzo[b,f][1,4]thiazepine], the half-inhibitory concentration (IC50) is 0.451 ± 0.097 µM at Adrenergic α2B and 1.41 µM in [6]. The Ki at Adrenergic α2B is 0.206 ± 0.0445 µM; in [6], 1.29 µM. Further, on Adrenergic α2B, the n came out at 0.902 ± 0.055. Besides, the inhibition at 1 µM on Adrenergic α2B (1 μM) was 62%. In data set [1], the “brain entry by PET” value is “reaches the brain”. For the same compound, the Kp at 1 h in the data set “Brain exposure in rats” (30 umol/kg, one hour after 30 μmol/kg po, read-out: brain/plasma exposure ratio) was determined as 3.4; in “Brain exposure in rats” (after iv dosing, read-out: brain:plasma concentration ratio), 4.6. The concentration at 1 h in “Brain exposure in rats” (plasma, 30 μmol/kg, heading: average concentration in plasma, one hour after 30 μmol/kg po) worked out at 0.658 µM. For the same compound, the “in vivo antipsychotic activity” value is recorded as “not shown to be efficacious” in the data set on mice [2], “not found to be efficacious” in the data set on rats and “not shown to be efficacious” in the data set with rats (listed as compound of Formula I). Further, the concentration at 0.25 h in data set [3] (2 mg/kg s.c.) turned out to be 4.8 µM; in data set [3] (5 mg/kg s.c.) it was 12.1 µM; in data set [3] (10 mg/kg s.c.), 19.4 µM. The “transporter occupancy by PET” value on 5HT Transporter was “occupies”. Besides, the bioavailability in data set [4] is 11%. Moreover, the “antidepressant effect (immobility)” value in the data set with mice [5] is listed as “antidepressant effects in this assay comparable to imipramine”. Besides, the “receptor occupancy by PET” value at 5-HT2A receptors is “occupies”. In addition, the “% INH.” value in [6] (10 μM) was 73%.

(Values after US20090093460A1, “Compositions” (AstraZeneca AB, priority 2003, published 2009).)
